Data from patent US20050202513A1.
“Also recorded” adds a separate entry of the source. Counter-ions that a name gives are not always drawn.

Key:
cancer patient [1] = test: Blood Troponin T level, sandwich ELISA; settings: cut-off 0.1 ng/mL
cancer patient [2] = test: Measurement of creatine kinase in blood
cancer patient [3] = test: Blood Myosin Light Chain I level, sandwich RIA; settings: cut-off 2.5 ng/mL
cancer patient [4] = test: Blood serum human H-FABP level, sandwich ELISA (MARKIT M H-FABP kit); settings: cut-off 6.2 ng/mL
cancer patient [5] = test: Clinical diagnosis of cardiac function; type: in vivo, human; settings: cancer patient administered with daunorubicin hydrochloride; expression of generalized edema
Procedure: The second blood sampling in the Table was performed one month after the first blood sampling.

cancer patient [6] = test: Echocardiogram analysis, ejection fraction of the heart; type: in vivo, human; settings: cancer patient administered with adriamycin, healthy volunteer not less than 60%
Procedure: By the echocardiogram analysis, the heart pump function was evaluated based on the ejection fraction (EF) of the heart as calculated by the following formula: Ejection fraction (%)={(left ventricular relaxation terminal diameter^2−left ventricular contraction terminal diameter^2)/left ventricular relaxation terminal diameter^2)×100
The ejection fraction of healthy volunteers is known to be not less than 60%.

cancer patient [7] = test: Electrocardiogram analysis; type: in vivo, human; settings: adriamycin patient
[8] = daunorubicin hydrochloride patient, first blood sampling
[9] = daunorubicin hydrochloride patient, second blood sampling (one month after the first)
[10] = adriamycin patient, first blood sampling
[11] = adriamycin patient, second blood sampling
[12] = adriamycin patient, third blood sampling

COc1cccc2c1C(=O)c1c(O)c3c(c(O)c1C2=O)C[C@@](O)(C(C)=O)C[C@@H]3O[C@H]1C[C@H](N)[C@H](O)[C@H](C)O1 [daunorubicin hydrochloride]
Blood concentration Troponin T (cancer patient [1]; [8]): <0.01 ng/mL | Blood concentration Troponin T (cancer patient [1]; [9]): <0.01 ng/mL | Blood concentration Creatine kinase (cancer patient [2]; daunorubicin hydrochloride patient with cardiac failure, first blood sampling): 11 U/L | Blood concentration Creatine kinase (cancer patient [2]; daunorubicin hydrochloride patient with cardiac failure, second blood sampling (one month after the first)): 7 U/L | Blood concentration Myosin Light Chain I (cancer patient [3]; [8]): <1.0 ng/mL | Blood concentration Myosin Light Chain I (cancer patient [3]; [9]): 1.4 ng/mL | Blood concentration Human H-FABP (cancer patient [4]; [8]): 7.6 ng/mL | Blood concentration Human H-FABP (cancer patient [4]; [9]): 6.9 ng/mL | Diagnosis (cancer patient [5]): cardiac failure

COc1cccc2c1C(=O)c1c(O)c3c(c(O)c1C2=O)C[C@@](O)(C(=O)CO)C[C@@H]3O[C@H]1C[C@H](N)[C@H](O)[C@H](C)O1 [adriamycin, Doxorubicin hydrochloride]
Blood concentration Troponin T (cancer patient [1]; [10]): <0.01 ng/mL | Blood concentration Troponin T (cancer patient [1]; [11]): 0.01 ng/mL | Blood concentration Troponin T (cancer patient [1]; [12]): 0.41 ng/mL | Blood concentration Creatine kinase (cancer patient [2]; adriamycin patient, first blood sampling, healthy 25-180 U/L (male), 20-150 U/L (female)): 37 U/L | Blood concentration Creatine kinase (cancer patient [2]; adriamycin patient, second blood sampling (about 2.5 months after the first)): 36 U/L | Blood concentration Creatine kinase (cancer patient [2]; adriamycin patient, third blood sampling (20 days after the second)): 33 U/L | Blood concentration Myosin Light Chain I (cancer patient [3]; [10]): <1.0 ng/mL | Blood concentration Myosin Light Chain I (cancer patient [3]; [11]): <1.0 ng/mL | Blood concentration Myosin Light Chain I (cancer patient [3]; [12]): <1.0 ng/mL | EF (ejection fraction) (cancer patient [6]; first blood sampling): 53% | EF (ejection fraction) (cancer patient [6]; third blood sampling (20 days after the second)): 37% | Electrocardiogram finding (cancer patient [7]; about 1 week before the third blood sampling, hydrochloride): T wave decreased; also recorded: sinus tachycardia and supraventricular extrasystole | Electrocardiogram finding (cancer patient [7]; about 2 weeks before the first blood sampling): extension of QTc | Blood concentration Human H-FABP (cancer patient [4]; adriamycin patient, blood serum, first blood sampling): 6.8 ng/mL | Blood concentration Human H-FABP (cancer patient [4]; adriamycin patient, blood serum, second blood sampling (about 2.5 months after the first)): 9.0 ng/mL | Blood concentration Human H-FABP (cancer patient [4]; adriamycin patient, blood serum, third blood sampling (20 days after the second)): 19.6 ng/mL
